Data from PubChem BioAssay AID1845215 (Molecular Pharmacology Branch, DTP, NCI, 2023).

System: SW 1271 complex tumor spheroid viability
Test: Anticancer human tumor SW 1271 cell line growth inhibition;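 also: spheroids exposed to agents for seven days before readout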;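 as to viability, T/C: percent of DMSO vehicle control luminescence so 100% = vehicle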
Details: for IC50: curve of first compound; for viability, T/C: stronger effect = lower value
Description: Multicellular complex tumor spheroid response to DNA repair inhibitors in combination with DNA-damaging drugs
This study explores the anticancer activities of DNA-damaging drugs and inhibitors of DNA damage repair, both as single agents and in combinations. Complex tumor spheroids comprised of malignant cells, endothelial cells and mesenchymal stem cells served as an in vitro model for human solid tumors. This model system incorporates physiologically relevant features and patient-derived or established malignant cell lines with clinically relevant genetic alterations from many tumor types. Twenty-six patient-derived or established malignant cell lines were evaluated representing sarcoma, melanoma, small cell lung cancer (SCLC), non-small cell lung cancer (NSCLC), as well as bladder, ovarian and pancreatic cancers. The concentration ranges selected for each drug and investigational agent were based upon clinically achievable concentrations if the clinical Cmax of the agent was known.
Compounds. The drugs and compounds olaparib (NSC753686), talazoparib (NSC767125), berzosertib (NSC777718), elimusertib (NSC800525), nedisertib (NSC802822), VX-984 (NSC792969), AZD-1390 (NSC803789), temozolomide (NSC362856), topotecan (NSC609699), trabectedin (NSC813783), staurosporine (NSC755774), and gemcitabine (NSC613327) were obtained from the National Cancer Institute (NCI) Developmental Therapeutics Program Chemical Repository. The FDA-approved anticancer drug set is available from the Developmental Therapeutics Program at https://dtp.cancer.gov/organization/dscb/obtaining/available_plates.htm. […] The stock solutions were prepared in dimethyl sulfoxide (DMSO, Sigma-Aldrich, St. Louis, MO, cat. D2650) at 400-fold the tested concentration and stored at -70 degrees C. Prior to their use, the stock solutions were diluted in fresh medium and the final DMSO concentration in the assay was 0.25% (v/v). All drugs and investigational agents were tested over a range starting from a high concentration at or near the clinical Cmax and decreasing in half-log increments. If the clinical Cmax for an agent had not been determined, the highest concentration tested was 10 microM.
Cell Lines. The patient-derived cancer cell (PDC) lines: 156681-154-R-J1-PDC, 283228-195-R-J1-PDC, 287954-098-R-J1-PDC, 292921-168-R-J2-PDC, 349418-098-R-PDC, 425362-245-T-J1-PDC, 556581-035-R-J1-PDC, and BL0293-F563-PDC were received from the NCI Patient-Derived Models Repository (PDMR, https://pdmr.cancer.gov). The established cell lines HS-SY-2 (RRID:CVCL_8719), MPNST, and SYO-1 (RRID:CVCL_7146) were obtained from the Sloan Kettering Institute. The alveolar soft parts sarcoma cell line ASPS-1 (RRID:CVCL_S738) was established at the NCI and grown from internal seed stocks. The following established cell lines were purchased from the American Type Culture Collection (ATCC, Manassas, VA): G-401 (ATCC, cat. CRL-1441, RRID:CVCL_0270), SW982 (ATCC, cat. HTB-93, RRID:CVCL_1734), VA-ES-BJ (ATCC, cat. CRL-2138, RRID:CVCL_1785), NCI-H719 (ATCC, cat. CRL-5837, RRID:CVCL_1582), NCI-H196 (ATCC, cat. CRL-5823, RRID:CVCL_1509), NCI-H841 (ATCC, cat. CRL-5845, RRID:CVCL_1595), NCI-H1618 (ATCC, cat. CRL-5879, RRID:CVCL_1480), NCI-H1876 (ATCC, cat. CRL-5902, RRID:CVCL_1503), DMS 114 (ATCC, cat. CRL-2066; RRID:CVCL_1174), NCI-H211 (ATCC, cat. CRL-5824; RRID:CVCL_1529), and SW 1271 (ATCC, cat. CRL-2177, RRID:CVCL_1716). The small cell lung cancer cell line COR-L88 was purchased from Sigma-Aldrich (cat. 92031917-1VL, RRID:CVCL_1141). The non-small cell lung cancer cell lines NCI-H226 (RRID:CVCL_1544) and NCI-H322M (RRID:CVCL_1557) were established at the NCI and grown from internal seed stocks. Pooled donor human umbilical vein endothelial cells (HUVEC, Lonza, cat. CC-2519) and human mesenchymal stem cells (hMSC, Lonza, cat. PT-2501) were purchased from Lonza (Walkersville, MD).
Cell Culture. All cells were maintained in an incubator at 37 degrees C and 5% CO2 with 95% humidity. […]

Q: Which IC50 (second compound 0.003 µM) does the source give for `Cc1cc(C)c(CNC(=O)c2cc(-c3ccc(CN4CCOCC4)cc3)cc3c2cnn3C2CCCC2)c(=O)[nH]1` + CC[C@@]1(O)C(=O)OCc2c1cc1n(c2=O)Cc2cc3c(CN(C)C)c(O)ccc3nc2-1 here?
A: 2.12 µM

Q: And the IC50 (second compound 0.00949 µM)?
A: 0.0329 µM

Q: What about the IC50 (second compound 0.03 µM) of the same molecule?
A: < 0.0316 µM

Q: What about the IC50 (second compound 0.0949 µM) of the same molecule?
A: < 0.0316 µM

Q: And the IC50 (second compound 0.3 µM)?
A: < 0.0316 µM

Q: What about the viability, T/C (second compound 0.003 µM, first compound 0.0316 µM) of the same molecule?
A: 83.2%

Q: And the viability, T/C (second compound 0.003 µM, first compound 0.1 µM)?
A: 84.7%

Q: And the viability, T/C (second compound 0.003 µM, first compound 0.316 µM)?
A: 70.6%

Q: And the viability, T/C (second compound 0.003 µM, first compound 1 µM)?
A: 59.8%

Q: And the viability, T/C (second compound 0.003 µM, first compound 3.16 µM)?
A: 45.5%

Q: And the viability, T/C (second compound 0.003 µM, first compound 10 µM)?
A: 34.9%

Q: And the viability, T/C (second compound 0.00949 µM, first compound 0.0316 µM)?
A: 51.3%

Q: And the viability, T/C (second compound 0.00949 µM, first compound 0.1 µM)?
A: 38.2%

Q: And the viability, T/C (second compound 0.00949 µM, first compound 0.316 µM)?
A: 32.5%

Q: What about the viability, T/C (second compound 0.00949 µM, first compound 1 µM) of the same molecule?
A: 26.9%

Q: And the viability, T/C (second compound 0.00949 µM, first compound 3.16 µM)?
A: 20.4%

Q: What about the viability, T/C (second compound 0.00949 µM, first compound 10 µM) of the same molecule?
A: 16.3%

Q: What about the viability, T/C (second compound 0.03 µM, first compound 0.0316 µM) of the same molecule?
A: 28.2%

Q: What about the viability, T/C (second compound 0.03 µM, first compound 0.1 µM) of the same molecule?
A: 26.4%

Q: What about the viability, T/C (second compound 0.03 µM, first compound 0.316 µM) of the same molecule?
A: 24.4%

Q: And the viability, T/C (second compound 0.03 µM, first compound 1 µM)?
A: 27%

Q: What about the viability, T/C (second compound 0.03 µM, first compound 3.16 µM) of the same molecule?
A: 24.9%

Q: What about the viability, T/C (second compound 0.03 µM, first compound 10 µM) of the same molecule?
A: 22.4%

Q: What about the viability, T/C (second compound 0.0949 µM, first compound 0.0316 µM) of the same molecule?
A: 30.7%

Q: What about the viability, T/C (second compound 0.0949 µM, first compound 0.1 µM) of the same molecule?
A: 27%

Q: What about the viability, T/C (second compound 0.0949 µM, first compound 0.316 µM) of the same molecule?
A: 27.7%

Q: What about the viability, T/C (second compound 0.0949 µM, first compound 1 µM) of the same molecule?
A: 25.6%

Q: What about the viability, T/C (second compound 0.0949 µM, first compound 3.16 µM) of the same molecule?
A: 23.5%

Q: What about the viability, T/C (second compound 0.0949 µM, first compound 10 µM) of the same molecule?
A: 22.6%

Q: What about the viability, T/C (second compound 0.3 µM, first compound 0.0316 µM) of the same molecule?
A: 15.7%

Q: What about the viability, T/C (second compound 0.3 µM, first compound 0.1 µM) of the same molecule?
A: 12.8%

Q: And the viability, T/C (second compound 0.3 µM, first compound 0.316 µM)?
A: 11%

Q: And the viability, T/C (second compound 0.3 µM, first compound 1 µM)?
A: 9.77%

Q: And the viability, T/C (second compound 0.3 µM, first compound 3.16 µM)?
A: 6.12%

Q: What about the viability, T/C (second compound 0.3 µM, first compound 10 µM) of the same molecule?
A: 4.56%

Q: How did the IC50 (second compound 0.003 µM) turn out when `Cc1sc2c(c1C)C(c1ccc(Cl)cc1)=NC(CC(=O)Nc1ccc(O)cc1)c1nnc(C)n1-2` (stereo not given) + CC[C@@]1(O)C(=O)OCc2c1cc1n(c2=O)Cc2cc3c(CN(C)C)c(O)ccc3nc2-1 was run?
A: 0.0512 µM

Q: What about the IC50 (second compound 0.00949 µM) of the same molecule?
A: 0.0108 µM

Q: And the IC50 (second compound 0.03 µM)?
A: < 0.00949 µM

Q: What about the IC50 (second compound 0.0949 µM) of the same molecule?
A: < 0.00949 µM

Q: What about the IC50 (second compound 0.3 µM) of the same molecule?
A: < 0.00949 µM

Q: And the viability, T/C (second compound 0.003 µM, first compound 0.00949 µM)?
A: 81.4%

Q: What about the viability, T/C (second compound 0.003 µM, first compound 0.03 µM) of the same molecule?
A: 71.3%

Q: What about the viability, T/C (second compound 0.003 µM, first compound 0.0949 µM) of the same molecule?
A: 25.5%

Q: And the viability, T/C (second compound 0.003 µM, first compound 0.3 µM)?
A: 3.11%

Q: And the viability, T/C (second compound 0.003 µM, first compound 0.949 µM)?
A: 1.06%

Q: What about the viability, T/C (second compound 0.003 µM, first compound 3 µM) of the same molecule?
A: 1.11%

Q: What about the viability, T/C (second compound 0.00949 µM, first compound 0.00949 µM) of the same molecule?
A: 52.3%

Q: And the viability, T/C (second compound 0.00949 µM, first compound 0.03 µM)?
A: 32.1%

Q: And the viability, T/C (second compound 0.00949 µM, first compound 0.0949 µM)?
A: 12.8%

Q: What about the viability, T/C (second compound 0.00949 µM, first compound 0.3 µM) of the same molecule?
A: 2.4%

Q: And the viability, T/C (second compound 0.00949 µM, first compound 0.949 µM)?
A: 1.61%

Q: What about the viability, T/C (second compound 0.00949 µM, first compound 3 µM) of the same molecule?
A: 1.61%

Q: What about the viability, T/C (second compound 0.03 µM, first compound 0.00949 µM) of the same molecule?
A: 25.2%

Q: And the viability, T/C (second compound 0.03 µM, first compound 0.03 µM)?
A: 24.4%

Q: And the viability, T/C (second compound 0.03 µM, first compound 0.0949 µM)?
A: 14.6%

Q: What about the viability, T/C (second compound 0.03 µM, first compound 0.3 µM) of the same molecule?
A: 2.67%

Q: What about the viability, T/C (second compound 0.03 µM, first compound 0.949 µM) of the same molecule?
A: 1.56%

Q: And the viability, T/C (second compound 0.03 µM, first compound 3 µM)?
A: 1.13%

Q: And the viability, T/C (second compound 0.0949 µM, first compound 0.00949 µM)?
A: 29%

Q: And the viability, T/C (second compound 0.0949 µM, first compound 0.03 µM)?
A: 24.5%

Q: And the viability, T/C (second compound 0.0949 µM, first compound 0.0949 µM)?
A: 13.2%

Q: What about the viability, T/C (second compound 0.0949 µM, first compound 0.3 µM) of the same molecule?
A: 3.31%

Q: And the viability, T/C (second compound 0.0949 µM, first compound 0.949 µM)?
A: 1.34%

Q: And the viability, T/C (second compound 0.0949 µM, first compound 3 µM)?
A: 2.04%

Q: What about the viability, T/C (second compound 0.3 µM, first compound 0.00949 µM) of the same molecule?
A: 16.9%

Q: What about the viability, T/C (second compound 0.3 µM, first compound 0.03 µM) of the same molecule?
A: 16.3%

Q: And the viability, T/C (second compound 0.3 µM, first compound 0.0949 µM)?
A: 7.74%

Q: And the viability, T/C (second compound 0.3 µM, first compound 0.3 µM)?
A: 1.97%

Q: What about the viability, T/C (second compound 0.3 µM, first compound 0.949 µM) of the same molecule?
A: 0.91%

Q: What about the viability, T/C (second compound 0.3 µM, first compound 3 µM) of the same molecule?
A: 0.97%
